For 7 molecules, GI50 and TGI results are on record in PubChem BioAssay (NCI).

Values joined by “and” are separate entries in the source; they are usually repeats but may differ in a detail not shown here. Identical values can stand only once.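 Cultured in 96-well plates, cells were exposed to test compound for 48 hours across five concentrations. GI50 = concentration required for 50% inhibition of growth. Definition used: TGI = concentration required for complete inhibition of growth.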

Test systems include NCI-H226 lung; OVCAR-3 ovarian; K-562 leukemia; SNB-19 CNS; SN12C renal; A549 NSCLC; HOP-62 NSCLC; CCRF-CEM leukemia; M14 melanoma; A498 renal.
What all share (assay): NCI anticancer screen, dose series, 48 h

On to `O=C(c1ccccc1O)c1[nH]c(Cl)c(Cl)c1-n1c(C(=O)c2ccccc2O)cc(Cl)c1Cl`, for which the GI50 with NCI-H226 lung is 1.63 µM and 0.706 µM; in the assay with OVCAR-3 ovarian, 1.03 µM and 0.704 µM; with K-562 leukemia, 0.409 µM; in the assay on SNB-19 CNS, 1.49 µM and 0.917 µM; with SN12C renal, 0.399 µM and 0.368 µM; in the assay on A549 NSCLC, 2.69 µM and 1.8 µM. Moreover, the GI50 with HOP-62 NSCLC is 2.14 µM and 3.49 µM; in the assay on CCRF-CEM leukemia it was 0.467 µM and 0.382 µM; in the assay with M14 melanoma, 1.46 µM and 1.44 µM; with A498 renal, 0.231 µM and 0.332 µM. The TGI is 14.9 µM and 5.97 µM in the assay on NCI-H226 lung; 13.1 µM and 13.4 µM in the assay on OVCAR-3 ovarian; 16.8 µM in the assay on K-562 leukemia; 15.4 µM and 15.6 µM in the assay with SNB-19 CNS; 11.9 µM and 11 µM in the assay with SN12C renal; 10.9 µM and 14.6 µM in the assay with A549 NSCLC. Besides, the TGI in the assay with HOP-62 NSCLC is 6.49 µM and 17.2 µM; in the assay with CCRF-CEM leukemia, 16.9 µM and 12.2 µM; with M14 melanoma, 5.9 µM and 7.76 µM; with A498 renal it was 2.04 µM and 2.75 µM.

As to `COc1ccc2[nH]c(O)c(/C=c3/ccc4c(c3)N=C(c3ccc(F)cc3)N=4)c2c1`, the GI50 with NCI-H226 lung was 2.5 µM; in the assay on OVCAR-3 ovarian, 3.25 µM; in the assay on K-562 leukemia, 9.14 µM; in the assay with SNB-19 CNS it was 9.47 µM; in the assay with SN12C renal, 4.88 µM; in the assay on A549 NSCLC it was 3.11 µM. For the same molecule, the GI50 is 1.93 µM in the assay with HOP-62 NSCLC, 4.14 µM in the assay with CCRF-CEM leukemia, 2.66 µM with M14 melanoma and 1.46 µM in the assay with A498 renal. Also, the TGI in the assay with NCI-H226 lung is 6.33 µM; in the assay with OVCAR-3 ovarian it was 11.4 µM; in the assay with K-562 leukemia it was more than 100 µM; in the assay with SNB-19 CNS, more than 100 µM; with SN12C renal, more than 100 µM; in the assay with A549 NSCLC, more than 100 µM. Also, the TGI was 3.91 µM in the assay on HOP-62 NSCLC, more than 100 µM with CCRF-CEM leukemia, 11.1 µM with M14 melanoma and 4.28 µM with A498 renal.

Regarding `COc1ccc(Oc2cc(NCCC(F)(F)F)c3ncc(-c4ccc(C(=O)NC5CC5)c(C)c4)n3n2)c(F)c1F`, the GI50 in the assay on NCI-H226 lung is 7.34 µM; in the assay with OVCAR-3 ovarian, 8.67 µM; with K-562 leukemia, 10.2 µM; with SNB-19 CNS, 5.73 µM; in the assay on SN12C renal, 0.527 µM; in the assay on A549 NSCLC, 0.902 µM. Besides, the results for the GI50 with HOP-62 NSCLC and with M14 melanoma were 2.02 µM and 0.339 µM, respectively. The TGI in the assay on NCI-H226 lung was 68.8 µM; in the assay with OVCAR-3 ovarian, more than 91.9 µM; in the assay with K-562 leukemia, more than 100 µM; in the assay with SNB-19 CNS it was more than 72.4 µM; in the assay with SN12C renal, more than 100 µM; in the assay with A549 NSCLC, more than 59.2 µM. Besides, the TGI was 37 µM in the assay with HOP-62 NSCLC, more than 100 µM in the assay with CCRF-CEM leukemia, more than 46.1 µM in the assay with M14 melanoma and 25.7 µM in the assay with A498 renal.

As for `C#C/C=C/CC1OC(C(Br)CC)CC(Br)C2CC1O2` (stereo not drawn), the TGI in the assay with NCI-H226 lung, in the assay with OVCAR-3 ovarian, in the assay on K-562 leukemia, with SNB-19 CNS, with SN12C renal and in the assay with A549 NSCLC was more than 100 µM each time. Besides, the TGI with HOP-62 NSCLC, in the assay on CCRF-CEM leukemia, with M14 melanoma and in the assay with A498 renal was more than 100 µM in each case.

Regarding `CC(C)(C)OC(=O)NCCCCCCCCCCn1c2c(c3ccccc3c1=O)C(=O)c1ccccc1-2`, the GI50 is more than 100 µM in the assay on NCI-H226 lung; more than 100 µM in the assay on OVCAR-3 ovarian; 27.4 µM in the assay with K-562 leukemia; 44.1 µM in the assay on SNB-19 CNS; more than 100 µM in the assay with SN12C renal; more than 100 µM in the assay with A549 NSCLC. The GI50 in the assay on HOP-62 NSCLC was 29.1 µM; in the assay on CCRF-CEM leukemia it was 20 µM; in the assay on M14 melanoma, more than 100 µM; with A498 renal, 26.2 µM. Also, the TGI in the assay with NCI-H226 lung, in the assay with OVCAR-3 ovarian, with K-562 leukemia, in the assay with SNB-19 CNS, in the assay with SN12C renal and in the assay on A549 NSCLC was more than 100 µM in each case. Further, the TGI in the assay on HOP-62 NSCLC was more than 100 µM; in the assay on CCRF-CEM leukemia, more than 100 µM; with M14 melanoma it was more than 100 µM; with A498 renal, 66 µM.

`CNC(=O)c1cc2c(Oc3ccc(NC(=S)NC(=O)Cc4ccccc4)cc3F)ccnc2cc1OC`: the GI50 in the assay with NCI-H226 lung is 5.36 µM; in the assay on OVCAR-3 ovarian it was more than 28.6 µM; in the assay with K-562 leukemia, 0.502 µM; with SNB-19 CNS it was more than 100 µM; with SN12C renal it was 2.18 µM; in the assay with A549 NSCLC it was more than 48.6 µM. In addition, the GI50 is 22.6 µM with HOP-62 NSCLC, more than 29.9 µM in the assay with CCRF-CEM leukemia, more than 24.3 µM in the assay with M14 melanoma and 1.1 µM in the assay on A498 renal. Further, the TGI with NCI-H226 lung, in the assay on OVCAR-3 ovarian, in the assay with K-562 leukemia, with SNB-19 CNS, with SN12C renal and in the assay on A549 NSCLC was more than 100 µM in each case. Besides, the TGI in the assay with HOP-62 NSCLC was more than 100 µM; in the assay on CCRF-CEM leukemia it was more than 100 µM; in the assay with M14 melanoma, more than 100 µM; with A498 renal, 4.35 µM.

For `Cc1ncc(-c2ccnc(Nc3ccc(S(C)(=O)=O)cc3)n2)n1C(C)C`, the GI50 with NCI-H226 lung is 0.902 µM; in the assay with OVCAR-3 ovarian it was 0.853 µM; in the assay on K-562 leukemia, 1.59 µM; in the assay with SNB-19 CNS it was 2.23 µM; in the assay on SN12C renal, 1.34 µM; in the assay with A549 NSCLC, 1.34 µM. The GI50 with HOP-62 NSCLC is 1.36 µM; in the assay on CCRF-CEM leukemia it was 0.987 µM; in the assay on M14 melanoma, 1.6 µM; in the assay with A498 renal it was 0.647 µM. Moreover, the TGI with NCI-H226 lung is more than 8.47 µM; in the assay with OVCAR-3 ovarian it was more than 8.42 µM; with K-562 leukemia it was more than 10 µM; with SNB-19 CNS it was more than 10 µM; with SN12C renal it was 9.84 µM; in the assay on A549 NSCLC, more than 10 µM. The TGI in the assay with HOP-62 NSCLC is more than 10 µM; in the assay with CCRF-CEM leukemia, more than 7.12 µM; in the assay with M14 melanoma, 5.04 µM; in the assay with A498 renal it was 2.55 µM.
